From publication PMC139962 (Lipids in Health and Disease, 2002)
Like-named read-outs stand apart in the source and are kept apart here.

Tests used:
[1] = target: AEA membrane transporter (AMT); format: biochemical, human; details: for Ki: read-out: Ki (inhibition of AMT); for IC50: read-out: IC50 of inhibition of [3H]AEA uptake; for inhibition of [3H]AEA uptake: 100 µM
[2] = tested on: AEA membrane transporter (AMT); assay: [3H]AEA uptake by human healthy brain; format: biochemical; details: for IC50: read-out: IC50 of inhibition of [3H]AEA uptake, 15 min at 37°C
[3] = tested on: AEA membrane transporter (AMT); assay: [3H]AEA uptake by mouse brain; format: biochemical; details: mouse brain synaptosomes
[4] = tested on: AEA membrane transporter (AMT); assay: [3H]AEA uptake by rat brain; format: biochemical; details: rat brain synaptosomes

NC(=O)CCC(N)C(=O)O (stereo in doubt) [D-Glutamine]
Ki [1]: 0.525 ± 0.05 µM

CCCCC/C=C\C/C=C\C/C=C\C/C=C\CCCC(=O)OC(CO)CO [2-AG, 2-arachidonoylglycerol]
effect on accumulation of 200 nM [3H]AEA [1]: inhibited almost completely

CCCCC/C=C\C/C=C\C/C=C\C/C=C\CCCC(=O)NCCO [AEA, N-arachidonoylethanolamine]
Q10 (ratio of AEA uptake at 30°C and 20°C) [1]: ~ 1.5
Vmax of AEA uptake [1]: 219 ± 19 pmol/min per mg protein
effect on accumulation of 200 nM [3H]AEA [1]: fully inhibited
Km ([1]; read-out: apparent Km of AEA uptake): 0.793 ± 0.128 µM
Q10 (ratio of AEA uptake at 30°C and 20°C) ([2]; HB synaptosomes): ~ 1.5
Vmax of AEA uptake ([2]; human healthy brain synaptosomes, 15 min, 0-1000 nM [3H]AEA, 37°C minus 4°C): 374 ± 38 pmol/min per mg protein
Vmax of AEA uptake [3]: 370 ± 23 pmol/min per mg protein
Km ([3]; read-out: Km of AEA uptake): 0.66 ± 0.08 µM
Vmax of AEA uptake [4]: 357 ± 18 pmol/min per mg protein
Km ([4]; read-out: Km of AEA uptake): 0.483 ± 0.052 µM

CCCCC/C=C\C/C=C\C/C=C\C/C=C\CCCC(=O)Nc1ccc(O)cc1 [AM404, N-(4-hydroxyphenyl)-arachidonoylamide]
IC50 [1]: ~7 µM
IC50 ([2]; HB synaptosomes): ~7 µM

N[C@H](CCC(=O)O)C(=O)O [D-Glutamate]
Ki [1]: 1.23 ± 0.11 µM

N[C@@H](CCC(=O)O)C(=O)O [L-Glutamate]
Ki [1]: 4 ± 0.37 µM

NC(=O)CC[C@H](N)C(=O)O [L-Glutamine]
Ki [1]: 1.1 ± 0.09 µM

CCN1C(=O)C=CC1=O [N-ethylmaleimide]
inhibition of [3H]AEA uptake [1]: ~ 50%

O=S(=O)(F)Cc1ccccc1 [PMSF, phenylmethylsulfonyl fluoride]
inhibition of [3H]AEA uptake [1]: ~ 50%

N=c1c[n+](N2CCOCC2)[n-]o1 [SIN-1, 3-morpholinosydnonimine]
enhancement of [3H]AEA uptake [1]: 180–220%

CCCCC/C=C\C/C=C\C/C=C\C/C=C\CCCC(=O)Nc1ccc(O)cc1C [VDM11]
IC50 [1]: ~7 µM
IC50 ([2]; HB synaptosomes): ~7 µM

CCCCC/C=C\C/C=C\C/C=C\C/C=C\CCCC(=O)O [arachidonic acid]
effect on accumulation of 200 nM [3H]AEA [1]: ineffective

NCCO [ethanolamine]
effect on accumulation of 200 nM [3H]AEA [1]: ineffective

O=C(O)CI [iodoacetic acid]
inhibition of [3H]AEA uptake [1]: ~ 50%

CCCCC/C=C\C[C@@H](O)/C=C/C=C/C=C\[C@@H](O)CCCC(=O)O [leukotriene B4]
effect on accumulation of 200 nM [3H]AEA [1]: not affected

CCCCC[C@H](O)/C=C/[C@H]1[C@H](O)CC(=O)[C@@H]1C/C=C\CCCC(=O)O [prostaglandin E2]
effect on accumulation of 200 nM [3H]AEA [1]: not affected
